Key:
[1] = molecular target: IDH1 R132H (Homo sapiens, UniProt O75874, R132H); test: Assay for IDH1 R132H inhibitors (NADPH/aKG, resazurin detection); format: biochemical; conditions: enzyme assay of Example 12; read-out: IDH1R132H IC50
How it was run: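 Compound added to substrate mix (8 uM NADPH, 2 mM aKG), then enzyme mix (0.2 μg/ml IDH1 R132H); 50 min RT in 20 mM Tris pH 7.5, 150 mM NaCl, 10 mM MgCl2, 0.03% BSA. Resazurin detection mix (30 μM) 5 min RT; resorufin fluorescence Ex544/Em590.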

[2] = system: U87MG cells; test: Cellular assay for IDH1m inhibitors: inhibition of 2-HG production (LC-MS, 48 hours) in U87MG cells; format: cell-based; conditions: Homo sapiens, U-87 MG, inhibition of 2-HG production, U87R132H cells; read-out: U87R132H IC50
How it was run: (§1)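 Each cell line is plated at 5000 cells/well in DMEM with 10% FBS and left overnight at 37 °C. Test compounds are then added for 48 h, after which 2-HG in the medium is determined by LC-MS; IC50 reflects 50% reduction compared with control.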

[3] = system: HT1080 cells; test: Cellular assay for IDH1m inhibitors: inhibition of 2-HG production (LC-MS, 48 hours) in HT1080 cells; format: cell-based; conditions: Homo sapiens, HT-1080; inhibition of 2-HG production, HT1080 cells; read-out: HT1080 IC50
How it was run: as §1

Sequence of IDH1 R132H (O75874 whole entry R132H): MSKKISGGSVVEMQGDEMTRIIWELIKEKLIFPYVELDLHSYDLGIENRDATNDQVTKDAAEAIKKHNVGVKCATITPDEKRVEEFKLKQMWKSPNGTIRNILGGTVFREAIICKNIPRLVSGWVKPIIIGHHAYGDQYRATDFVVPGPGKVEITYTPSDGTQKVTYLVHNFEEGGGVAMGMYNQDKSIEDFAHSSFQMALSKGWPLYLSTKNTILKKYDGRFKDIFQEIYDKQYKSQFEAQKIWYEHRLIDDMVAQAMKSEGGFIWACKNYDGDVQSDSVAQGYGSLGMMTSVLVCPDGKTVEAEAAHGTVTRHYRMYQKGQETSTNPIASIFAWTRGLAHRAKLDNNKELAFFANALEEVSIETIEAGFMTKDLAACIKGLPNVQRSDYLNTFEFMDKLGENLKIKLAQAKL

| Structure (SMILES) | IC50 [1] [nM] | IC50 [2] [nM] | IC50 [3] [nM] |
| --- | --- | --- | --- |
| COCCC(=O)N1CCN(c2nc(C3CC3)c(-c3cccc(NC(=O)C(C)=O)c3)cc2C#N)C[C@H]1C [Compound 416, (R)—N-(3-(5-cyano-2-cyclopropyl-6-(4-(3-methoxypropanoyl)-3-methylpiperazin-1-yl)pyridin-3-yl)phenyl)-2-oxopropanamide] | 500 to 1000 | 500 to 1000 | 1000 to 10000 |
| C=C(F)C(=O)Nc1cccc(-c2cc(C#N)c(N3CCN(C(=O)CCOC)[C@H](C)C3)nc2C2CC2)c1 [Compound 431, (R)—N-(3-(5-cyano-2-cyclopropyl-6-(4-(3-methoxypropanoyl)-3-methylpiperazin-1-yl)pyridin-3-yl)phenyl)-2-fluoroacrylamide] | 500 to 1000 | 500 to 1000 | 500 to 1000 |
| COCCC(=O)N1CCN(c2nc(C3CC3)c(-c3cccc4cnc(C)cc34)cc2C#N)C[C@H]1C [Compound 433, (R)-6-cyclopropyl-2-(4-(3-methoxypropanoyl)-3-methylpiperazin-1-yl)-5-(3-methylisoquinolin-5-yl)nicotinonitrile] | < 500 | < 500 | < 500 |
| C=Cc1cc(-c2cc(C#N)c(N3CCN(C(=O)CCO)[C@H](C4CC4)C3)nc2C2CC2)c2cnn(C)c2n1 [Compound 744, (R)-6-cyclopropyl-2-(3-cyclopropyl-4-(3-hydroxypropanoyl)piperazin-1-yl)-5-(1-methyl-6-vinyl-1H-pyrazolo[3,4-b]pyridin-4-yl)nicotinonitrile] | < 500 | < 500 | < 500 |
| C=Cc1cc(Oc2cc(C#N)c(N3CCN(C(=O)CCO)[C@H](C4CC4)C3)nc2C2CC2)ccn1 [Compound 692, (R)-6-cyclopropyl-2-(3-cyclopropyl-4-(3-hydroxypropanoyl)piperazin-1-yl)-5-(2-vinylpyridin-4-yloxy)nicotinonitrile] | < 500 | < 500 | < 500 |
| C#CC(=O)Nc1cccc(-c2cc(C#N)c(N3CCN(C(=O)CCOC)[C@H](C)C3)nc2C2CC2)c1 [Compound 428, (R)—N-(3-(5-cyano-2-cyclopropyl-6-(4-(3-methoxypropanoyl)-3-methylpiperazin-1-yl)pyridin-3-yl)phenyl)propiolamide] | < 500 | 500 to 1000 | < 500 |
| C=Cc1cc2c(-c3cc(C#N)c(N4CCN(C(=O)C5CC5)[C@H](C5CC5)C4)nc3C3CC3)cccc2cn1 [Compound 565, (R)-2-(4-(cyclopropanecarbonyl)-3-cyclopropylpiperazin-1-yl)-6-cyclopropyl-5-(3-vinylisoquinolin-5-yl)nicotinonitrile] | < 500 | 500 to 1000 | 500 to 1000 |
| C=Cc1cc(-c2cc(C#N)c(N3CCN(C(=O)CCO)[C@H](C(C)C)C3)nc2C2CC2)ccn1 [Compound 721, (R)-2-cyclopropyl-6-(4-(3-hydroxypropanoyl)-3-isopropylpiperazin-1-yl)-2′-vinyl-3,4′-bipyridine-5-carbonitrile] | < 500 | < 500 | < 500 |
| CCS(=O)(=O)N1CCN(c2cc(C#N)c(N3CCN(C(=O)CCOC)[C@H](C)C3)nc2C2CC2)CC1 [Compound 377, (R)-6-cyclopropyl-5-(4-(ethylsulfonyl)piperazin-1-yl)-2-(4-(3-methoxypropanoyl)-3-methylpiperazin-1-yl)nicotinonitrile] | < 500 | < 500 | 500 to 1000 |
| COCCC(=O)N1CCN(c2nc(C3CC3)c(-c3ccc(F)cc3F)c(C)c2C#N)C[C@H]1C [Compound 264, 6-cyclopropyl-5-(2,4-difluorophenyl)-2-((R)-4-(3-methoxypropanoyl)-3-methylpiperazin-1-yl)-4-methylnicotinonitrile] | 500 to 1000 | 1000 to 10000 | 1000 to 10000 |
| COCCC(=O)N1CCN(c2nc(C3CC3)c(-c3cccc(C#N)c3)cc2C#N)C[C@H]1C [Compound 283, (R)-5-(3-cyanophenyl)-6-cyclopropyl-2-(4-(3-methoxypropanoyl)-3-methylpiperazin-1-yl)nicotinonitrile] | < 500 | 1000 to 10000 | 500 to 1000 |
| C=CC(=O)Nc1cccc(COc2cc(C#N)c(N3CCN(C(=O)CCOC)[C@H](C)C3)nc2C2CC2)c1 [Compound 381, (R)—N-(3-((5-cyano-2-cyclopropyl-6-(4-(3-methoxypropanoyl)-3-methylpiperazin-1-yl)pyridin-3-yloxy)methyl)phenyl)acrylamide] | < 500 | < 500 | < 500 |

Continued, values first:

| IC50 [1] [nM] | IC50 [2] [nM] | IC50 [3] [nM] | Structure (SMILES) |
| --- | --- | --- | --- |
| < 500 | 1000 to 10000 | 1000 to 10000 | COCCC(=O)N1CCN(c2nc(C3CC3)c(-c3ccc(C)c(F)c3)c(C)c2C#N)C[C@H]1C [Compound 266, (R)-6-cyclopropyl-5-(3-fluoro-4-methylphenyl)-2-(4-(3-methoxypropanoyl)-3-methylpiperazin-1-yl)-4-methylnicotinonitrile] |
| < 500 | < 500 | < 500 | C=Cc1cc(-c2cc(C#N)c(N3CCN(C(=O)CC[C@@H]4CCO4)[C@H](C4CC4)C3)nc2C2CC2)ccn1 [Compound 794, 2-cyclopropyl-6-((R)-3-cyclopropyl-4-(3-((R)-oxetan-2-yl)propanoyl)piperazin-1-yl)-2′-vinyl-[3,4′-bipyridine]-5-carbonitrile] |
| < 500 | 500 to 1000 | 1000 to 10000 | COCCC(=O)N1CCN(c2nc(C3CC3)c(-c3ccc4c(c3)NC(=O)C4)cc2C#N)C[C@H]1C [Compound 313, (R)-6-cyclopropyl-2-(4-(3-methoxypropanoyl)-3-methylpiperazin-1-yl)-5-(2-oxoindolin-6-yl)nicotinonitrile] |
| < 500 | 500 to 1000 | 1000 to 10000 | COCCC(=O)N1CCN(c2nc(C3CC3)c(-c3ccc4[nH]cnc4c3)cc2C#N)C[C@H]1C [Compound 361, (R)-5-(1H-benzoimidazol-5-yl)-6-cyclopropyl-2-[4-(3-methoxy-propionyl)-3-methyl-piperazin-1-yl]-nicotinonitrile] |
| < 500 | < 500 | < 500 | C=Cc1cc(-c2c(C3CC3)nc(N3CCN(C(=O)CCOC)[C@H](C)C3)c(C#N)c2C)ccn1 [Compound 628, (R)-2-cyclopropyl-6-(4-(3-methoxypropanoyl)-3-methylpiperazin-1-yl)-4-methyl-2′-vinyl-[3,4′-bipyridine]-5-carbonitrile] |
| < 500 | < 500 | < 500 | C=Cc1cc(-c2cc(C#N)c(N3CCN(C(=O)CCCOC)[C@H](C4CC4)C3)nc2C2CC2)ccn1 [Compound 747, (R)-2-cyclopropyl-6-(3-cyclopropyl-4-(4-methoxybutanoyl)piperazin-1-yl)-2′-vinyl-3,4′-bipyridine-5-carbonitrile] |
| < 500 | < 500 | < 500 | C=Cc1cc(-c2cc(C#N)c(N3CCN(C(=O)CCO)[C@H](C4CC4)C3)nc2C2CC2)c2cc[nH]c2n1 [Compound 740, (R)-6-cyclopropyl-2-(3-cyclopropyl-4-(3-hydroxypropanoyl)piperazin-1-yl)-5-(6-vinyl-1H-pyrrolo[2,3-b]pyridin-4-yl)nicotinonitrile] |
| < 500 | < 500 | < 500 | C=Cc1cc(-c2c(C3CC3)nc(N3CCN(C(=O)C[C@H]4CCO4)[C@H](C(C)C)C3)c(C#N)c2C)cnn1 [Compound 786, 6-cyclopropyl-2-((R)-3-isopropyl-4-(2-((R)-oxetan-2-yl)acetyl)piperazin-1-yl)-4-methyl-5-(6-vinylpyridazin-4-yl)nicotinonitrile] |
| < 500 | < 500 | < 500 | C=Cc1cnnc(-c2c(C3CC3)nc(N3CCN(C(=O)C[C@H]4CCO4)[C@H](C(C)C)C3)c(C#N)c2C)c1 [Compound 793, 6-cyclopropyl-2-((R)-3-isopropyl-4-(2-((R)-oxetan-2-yl)acetyl)piperazin-1-yl)-4-methyl-5-(5-vinylpyridazin-3-yl)nicotinonitrile] |
| < 500 | 500 to 1000 | 500 to 1000 | COCCC(=O)N1CCN(c2nc(C3CC3)c(-c3ccc4[nH]ncc4c3)cc2C#N)C[C@H]1C [Compound 295, (R)-6-cyclopropyl-5-(1H-indazol-5-yl)-2-(4-(3-methoxypropanoyl)-3-methylpiperazin-1-yl)nicotinonitrile] |
| < 500 | < 500 | < 500 | C=Cc1cc(-c2cc(C#N)c(N3CCN(C(=O)CCO)[C@H](C4CC4)C3)nc2C2CC2)ccn1 [Compound 527] |
| < 500 | < 500 | < 500 | COCCC(=O)N1CCN(c2nc(C3CC3)c(-c3cccc4nc(O)ccc34)cc2C#N)C[C@H]1C [Compound 442, (R)-6-cyclopropyl-5-(2-hydroxyquinolin-5-yl)-2-(4-(3-methoxypropanoyl)-3-methylpiperazin-1-yl)nicotinonitrile] |
| < 500 | < 500 | 500 to 1000 | COCCC(=O)N1CCN(c2nc(C3CC3)c(-c3ccc4ncsc4c3)cc2C#N)C[C@H]1C [Compound 364, (R)-5-benzothiazol-6-yl-6-cyclopropyl-2-[4-(3-methoxy-propionyl)-3-methyl-piperazin-1-yl]-nicotinonitrile] |
